Where two headings read alike, the source gives them in different places.
What was measured:
[1] = target: T1, Or47a/Or83b (Drosophila melanogaster, UniProt P81921+Q9VNB5); experiment: Ca2+-imaging of stable Flip-In T-Rex cell line Or47a/Or83b; assay type: cell-based; details: for inhibition at 4 µM: compound applied at 4 μM, read-out: Percent Inhibition OR47a OR83b
T1 construct: Full-length cDNAs for mosquito (Anopheles gambiae) odorant receptor (OR1, OR2, OR7, OR8, OR28), and fly (Drosophila melanogaster) odorant receptor (Or47a, Or83b); expressed in transfected cells
T1 sequence (P81921 1-385): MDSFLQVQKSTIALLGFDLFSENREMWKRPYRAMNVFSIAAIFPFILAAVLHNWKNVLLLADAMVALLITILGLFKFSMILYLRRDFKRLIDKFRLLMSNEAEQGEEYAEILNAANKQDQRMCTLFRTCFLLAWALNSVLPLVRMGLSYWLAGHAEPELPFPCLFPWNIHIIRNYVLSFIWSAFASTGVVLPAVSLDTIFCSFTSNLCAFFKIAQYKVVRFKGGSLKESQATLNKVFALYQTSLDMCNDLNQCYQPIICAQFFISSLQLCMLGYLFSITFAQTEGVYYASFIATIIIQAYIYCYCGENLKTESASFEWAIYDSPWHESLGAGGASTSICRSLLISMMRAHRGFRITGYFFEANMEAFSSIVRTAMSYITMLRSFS
T1 sequence (Q9VNB5 1-486): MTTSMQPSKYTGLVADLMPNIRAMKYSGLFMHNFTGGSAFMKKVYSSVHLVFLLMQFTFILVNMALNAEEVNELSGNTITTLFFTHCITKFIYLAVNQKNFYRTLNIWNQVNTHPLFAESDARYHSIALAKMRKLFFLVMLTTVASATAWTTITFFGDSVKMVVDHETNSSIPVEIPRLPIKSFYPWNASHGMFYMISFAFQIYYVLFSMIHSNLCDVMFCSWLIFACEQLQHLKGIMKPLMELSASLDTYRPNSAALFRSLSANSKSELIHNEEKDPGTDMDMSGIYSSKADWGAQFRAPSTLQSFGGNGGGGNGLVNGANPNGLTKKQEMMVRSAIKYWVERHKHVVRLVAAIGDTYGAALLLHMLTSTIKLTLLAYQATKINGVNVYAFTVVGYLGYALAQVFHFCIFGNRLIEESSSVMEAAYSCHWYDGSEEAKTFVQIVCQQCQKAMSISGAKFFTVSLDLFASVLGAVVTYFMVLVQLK
Description: (§1) Full-length cDNAs for mosquito (Anopheles gambiae) odorant receptor (OR1, OR2, OR7, OR8, OR28), and fly (Drosophila melanogaster) odorant receptor (Or47a, Or83b), mouse TRP channel (TRPM8), and mouse serotonin receptor (5HT3) were obtained and subcloned into mammalian expression vectors. The following mammalian expression vectors were used:
(§2) Stable cell lines Or47a/Or83b and 5HT3 were generated from Flip-In T-Rex cells. Flip-In T-Rex-based cell lines were cultured in DMEM supplemented with these additional antibiotics: 6 μg/mL blasticidin and 100 μg/mL hygromycin.
(§3) Cells were trypsinized and split into 35 mm dishes 1 day before transfection. Confluent cells (60-70%) in 35 mm dishes were co-transfected with 1 μg of Or47a/Or83b plasmid in pcDNA5/FRT/TO/IRES plus the pOG44 plasmid or 1 μg of 5HT3 plasmid in pcDNA5/FRT/TO plus the pOG44 plasmid using lipofectamine 2000. Co-transfection of pOG44 and pcDNA5/FRT/TO/IRES or pcDNA5/FRT/TO allows expression of Flp recombinase and integration of the pcDNA5 plasmid into the genome via the FRT site. After one day of incubation, the transfected cells were transferred into 10 cm dishes with DMEM containing antibiotics: 20 μg/mL of hygromycin and 6 μg/mL of blasticidin. The concentration of Hygromycin was increased to 100 μg/mL when the population of cells became 30-40% confluent. The cells were cultured by changing medium every two days until cell clumps appeared. The clumps were picked and transferred into 96 well plates with DMEM containing 100 μg/mL of Hygromycin and 6 μg/mL of blasticidin. The cells were grown and transferred to 24 well plates, and ligand-evoked calcium increases were tested using the Hamamatsu FDSS6000 real time fluorescence plate reader.
(§4) Stable cell lines were cultured in 10 cm dishes, and confluent cells (70-80%) were trypsinized. 10,000 cells/20 μL were transferred into each well of 384-well plates coated with poly-D-lysine, and cultured for 2 days. For Flip-In T-Rex cells (cell lines expressing Or47a/Or83b and 5HT3), 5 μL of tetracycline (5 μg/mL) were added 1 day before the assay. 20 μL of Ca-4 dye was loaded into each well for 1.5 hr at room temperature in the dark, and the dye-loaded plates were subjected to Ca^2+-imaging using a Hamamatsu FDSS6000 real time fluorescence plate reader. Odorant solutions (9× final concentration) were prepared by dissolving 1M stock solutions into Hank's Buffered Salt Solution (HBSS), and 30 μL of odor solution was transferred to each well in 384-well plates.
(§5) Compounds ([…] in DMSO) were stored in 384-well plates, and last two columns (32 wells total) contained only DMSO. 200 nL of small compounds were transferred into the odorant plates before the assay using the Perkin-Elmer Janus workstation. The odorant plates were spun down to remove air bubbles, and placed on the FDSS6000 plate loader, and 5 μL of odorant solution was applied to the cell plate on the FDSS6000. Ca^2+ increase was monitored with fluorescence at 525 nm by excitation at 485 nm.

[2] = target: T2, serotonin receptor (5HT3) (Mus musculus, UniProt P23979); experiment: Ca2+-imaging of stable Flip-In T-Rex cell line 5HT3; assay type: cell-based; details: for inhibition at 4 µM: compound applied at 4 μM, read-out: Percent Inhibition 5HT3
T2 construct: Full-length cDNAs for mosquito (Anopheles gambiae) odorant receptor; expressed in transfected cells
T2 sequence (P23979 24-489): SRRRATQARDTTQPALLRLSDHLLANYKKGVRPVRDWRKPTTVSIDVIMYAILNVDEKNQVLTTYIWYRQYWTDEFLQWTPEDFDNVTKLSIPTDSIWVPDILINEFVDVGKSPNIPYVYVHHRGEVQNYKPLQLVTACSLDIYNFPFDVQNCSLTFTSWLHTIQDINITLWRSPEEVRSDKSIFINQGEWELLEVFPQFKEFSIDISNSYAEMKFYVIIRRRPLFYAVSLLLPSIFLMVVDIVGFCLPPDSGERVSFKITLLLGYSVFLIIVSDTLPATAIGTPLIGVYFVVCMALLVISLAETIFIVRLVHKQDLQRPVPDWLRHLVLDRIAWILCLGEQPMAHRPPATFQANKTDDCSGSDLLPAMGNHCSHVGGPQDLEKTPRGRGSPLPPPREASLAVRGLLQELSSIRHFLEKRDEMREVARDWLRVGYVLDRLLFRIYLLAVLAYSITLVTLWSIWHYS
Description: as §1, §2, §3, §4, §5

Row | Structure (SMILES) | inhibition at 4 µM [1] [%] | inhibition at 4 µM [2] [%] | further results
1 | Cc1nn(-c2ccc(Cl)cc2)c(C)c1C(=O)NCc1ccccn1 [RU-0048608] | 26 to 50 | < 25 | 
2 | CCCCCCCC(=O)N1CCCC(C(=O)NC2CCCC[C@H]2NC(=O)c2ccccc2C)C1 (stereo partly drawn) [RU-0045756] | 26 to 50 | < 25 | 
3 | Cc1cccc(NC(=O)CCC2CCN(C(=O)CCOc3ccccc3)CC2)c1 [RU-0030324] | 51 to 74 | 26 to 50 | IC50 ([1]; Table B, read-out: IC50 OR47a): < 100 nM
4 | Cc1ccccc1C(=O)N[C@@H]1CCCCC1NC(=O)C1CCCN(S(=O)(=O)c2cc(Cl)ccc2Cl)C1 (stereo partly drawn) [RU-0045691] | 26 to 50 | < 25 | 
5 | Cc1nc(NC(C)C)nc(NC(C)C)n1 [RU-T6] |  |  | IC50 [1]: > 20000 nM; IC50 [2]: > 20000 nM
6 | C=CCN(Cc1nccn1Cc1ccccc1F)C(=O)c1cccc(F)c1 [RU-0058232] | 26 to 50 | 51 to 74 | IC50 ([2]; Table B, read-out: IC50 5HT3): > 1000 nM
7 | O=C(c1nccn1Cc1c(F)cccc1Cl)N(CC1CCCC1)C1CC1 [RU-I3] |  |  | IC50 ([1]; ligand pentyl acetate 30 μM, read-out: IC50 OR47a OR83b): < 2000 nM; IC50 ([2]; ligand serotonin 10 μM, read-out: IC50 5HT3): 2000 to 20000 nM
8 | COc1ccc(OCC(=O)N2CCOC(Cc3ccccc3)C2)cc1 (stereo not drawn) [RU-0050384] | 26 to 50 | < 25 | 
9 | C=CCNC(=O)C(NC(=O)c1cccc(C)c1)C1CCN(C(=O)c2cccc(Br)c2)CC1 (stereo not drawn) [RU-0039123] | 51 to 74 | 26 to 50 | IC50 ([1]; Table B, read-out: IC50 OR47a): > 1000 nM

From patent US20130324522A1, “INSECT ODORANT RECEPTOR ANTAGONISTS” (THE ROCKEFELLER UNIVERSITY, priority 2010, published 2013)
